Measurements taken from publication PMC12748375, “Insights into cannabinoid receptor 2 (CB2) anterograde trafficking and pharmacological chaperoning” (Cellular and Molecular Life Sciences: CMLS, 2025).

How the values were obtained:
[1] = target: T1, hCB2 wt (Homo sapiens, UniProt P34972, K318E/K319E); assay: net surface expression, immunocytochemistry (Method B); assay type: cell-based; conditions: read-out: Method B: Net Surface Expression (3 h) / KK mutant / pEC50 (± SEM) (converted)
T1 construct: gene CNR2; full-length (63Q), N-terminal HA tag and three thrombin cleavage sites (HA-3TCS), pcDNA5/FRT, expressed in HEK Flp-in-293 cells

[2] = target: T2, hCB2 wt (Homo sapiens, UniProt P34972); assay: receptor internalisation, surface HA immunocytochemistry (Method A); assay type: cell-based; conditions: read-out: Method A: Internalisation (3 h) / CB2 wt / pEC50 (± SEM) (converted)
T2 construct: gene CNR2; full-length (63Q), N-terminal HA tag and three thrombin cleavage sites (HA-3TCS), pcDNA5/FRT, expressed in HEK Flp-in-293 cells
Description: receptor internalisation, surface HA immunocytochemistry (Method A) on hCB2 wt

T2 sequence (P34972 whole entry): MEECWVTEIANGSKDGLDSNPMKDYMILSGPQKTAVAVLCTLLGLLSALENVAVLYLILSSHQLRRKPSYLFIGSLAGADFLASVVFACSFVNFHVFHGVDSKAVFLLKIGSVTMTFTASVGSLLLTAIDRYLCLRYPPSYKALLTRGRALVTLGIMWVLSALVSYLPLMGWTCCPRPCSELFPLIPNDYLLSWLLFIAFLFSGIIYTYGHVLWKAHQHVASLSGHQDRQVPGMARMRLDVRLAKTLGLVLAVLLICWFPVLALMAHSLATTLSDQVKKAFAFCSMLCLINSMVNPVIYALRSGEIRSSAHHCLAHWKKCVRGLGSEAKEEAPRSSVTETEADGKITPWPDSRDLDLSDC
T1 sequence (P34972 whole entry K318E/K319E): as the sequence (P34972 whole entry) above, with K318E, K319E counted along it

Structure (SMILES)	EC50 [1] [nM]	EC50 [2] [nM]
COc1ccc(C(=O)c2c(C)n(CCN3CCOCC3)c3cc(I)ccc23)cc1 [AM630]	513	–
CCCCC/C=C\C/C=C\C/C=C\C/C=C\CCCC(=O)OC(CO)CO [2-AG]	–	741
